Reference: ChEMBL document CHEMBL1130168, “Synthesis and evaluation of novel rhodacyanine dyes that exhibit antitumor activity” (J Med Chem, 1997)
pIC50: −log10 of the molar value.

Tests used:
CV-1 = test: Inhibitory concentration against growth of monkey normal kidney epithelial cells as a measure of compound toxicity; type: functional, cell-based, Cercopithecidae; settings: Chlorocebus aethiops
CX-1 = test: Inhibitory concentration against growth of human colon carcinoma cells; type: functional, cell-based
[1] = Selectivity ratio is IC50 of Human colon carcinoma cells to that of Monkey normal kidney epithelial cells; type: functional, Epithelial cell
Bladder carcinoma cell = test: Inhibitory concentration of compound against growth of human bladder carcinoma cells; type: functional, cell-based
LOX IMVI [2] = test: Inhibitory concentration of compound against growth of human melanoma cells; type: functional, cell-based
MCF7 = test: Inhibitory concentration of compound against growth of human breast carcinoma cells; type: functional, cell-based
Mus musculus [3] = test: 5 mg/kg of compound was administered IP on days 1,5,7 to CX-1 tumor bearing nude mice and the inhibition ratio was reported; type: functional
Mus musculus [4] = test: 5 mg/kg of compound was administered IP on days 1,5,8,12 to LOX tumor bearing nude mice and the ratio of median survival time of treated to control was reported; type: functional
MIA PaCa-2 = test: Inhibitory concentration of compound against growth of human pancreatic carcinoma cells; type: functional, cell-based
Mus musculus [5] = test: 5 mg/kg of compound was administered IP on days 1,3,7,10,16 to OVCARIII tumor bearing nude mice and the ratio of median survival time of treated to control was reported
Mus musculus [6] = test: 1.5 mg/kg of compound was administered IP on days 1,3,4,7,9 to LOX tumor bearing nude mice and the ratio of median survival time of treated to control was reported; type: functional
LOX IMVI [7] = test: Inhibitory concentration of compound against growth of human melanoma cell cells; type: functional, cell-based
Mus musculus [8] = test: 2 mg/kg of compound was administered IP on days 1,2,4,5,7,8,10 to LOX tumor bearing nude mice and the ratio of median survival time of treated to control was reported; type: functional; settings: at 2 mg/kg
Mus musculus [9] = test: 4 mg/kg of compound was administered IP on days 1,2,4,5,7,8,10 to LOX tumor bearing nude mice and the ratio of median survival time of treated to control was reported; type: functional; settings: at 4 mg/kg
Mus musculus [10] = test: 5 mg/kg of compound was administered IP on days 1,3,7,10,16 to […] tumor bearing nude mice and the ratio of median survival time of treated to control was reported; type: functional; settings: at 5 mg/kg
Mus musculus [11] = test: 5 mg/kg of compound was administered IP on days 1,5,8,12,15 to LOX tumor bearing nude mice and the ratio of median survival time of treated to control was reported; type: functional; settings: at 5 mg/kg
[12] = Homo sapiens, Bladder carcinoma cell

SMILES | pIC50 (CV-1) | pIC50 (CX-1) | Ratio [1] | also measured
CCN1/C(=C/C=c2\s/c(=C\c3sc4ccccc4[n+]3CC)sc2=O)Oc2ccccc21.[I-] | 5.47 | < 5.77 | <2 | 
CCN1C(=O)CS/C1=C\c1sc2ccccc2[n+]1CC.[Br-] | 4.41 | 5.89 | 30 | 
CC[n+]1c(/C=C2\SCC(=O)N2c2ccccc2)sc2ccccc21.[Br-] | 4.34 | 5.64 | 20 | 
CCN1/C(=C/C=c2\s/c(=C\c3sc4ccc5ccccc5c4[n+]3CC)n(CC)c2=O)Sc2ccc3ccccc3c21.Cc1ccc(S(=O)(=O)[O-])cc1 | 5.19 | 7.52 | 217 | 
CC[n+]1c(/C=c2\s/c(=C3/Sc4ccccc4N3C)c(=O)n2-c2ccccc2)sc2ccccc21.Cc1ccc(S(=O)(=O)[O-])cc1 | 5.66 | 8.00 | 220 | pIC50 (Bladder carcinoma cell; [12]): 7.40; pIC50 (LOX IMVI [2]): 7.40; pIC50 (MCF7; Homo sapiens, MCF7): 7.22; TI (Mus musculus [3]): 42%; T/C (Mus musculus [4]): 183%; pIC50 (MIA PaCa-2; Homo sapiens, MIA PaCa-2): 7.40; T/C (Mus musculus [5]): >300%
CC[n+]1c(/C=c2\s/c(=C\Nc3ccccc3)c(=O)n2-c2ccccc2)sc2ccccc21.[Br-] | 5.82 | 5.82 | 1 | 
CCN1/C(=C/C=c2\s/c(=C\c3sc4ccccc4[n+]3CC)n(-c3ccccc3)c2=O)Sc2ccccc21.[I-] | 5.52 | 7.22 | 50 | pIC50 (Bladder carcinoma cell; [12]): 6.40; pIC50 (LOX IMVI [2]): 7.40; pIC50 (MCF7; Homo sapiens, MCF7): 7.40; T/C (Mus musculus [6]): 256%; pIC50 (MIA PaCa-2; Homo sapiens, MIA PaCa-2): 7.15
CC(=O)[O-].CCn1c(=O)/c(=C2\Sc3ccccc3N2C)s/c1=C\c1sc2ccccc2[n+]1CC |  |  |  | pIC50 (Bladder carcinoma cell; [12]): 7.22; pIC50 (LOX IMVI [7]): 8.00; pIC50 (MCF7; mcf7): 6.40; T/C (Mus musculus [8]): 156%; T/C (Mus musculus [9]): 163%; pIC50 (MIA PaCa-2; Homo sapiens, MIA PaCa-2): 7.22
CC[n+]1c(/C=c2\s/c(=C\C=C\Nc3ccccc3)c(=O)n2-c2ccccc2)sc2ccccc21.[I-] | 5.01 | 6.10 | 12 | 
CCN1/C(=C/C=C(Cl)/C=C/c2sc3ccc4ccccc4c3[n+]2CC)Sc2ccc3ccccc3c21.Cc1ccc(S(=O)(=O)[O-])cc1 | 7.00 | 7.22 | 2 | 
CCN1/C(=C/C=c2/c(=O)s/c(=C/c3sc4ccccc4[n+]3CC)n2C)Oc2ccccc21.[I-] | 5.47 | 7.15 | 49 | 
CCN1/C(=C/C=C/c2sc3ccccc3[n+]2CC)Sc2ccccc21.[I-] | 5.92 | 7.22 | 20 | 
CCn1c(=O)/c(=C2\Sc3ccccc3N2C)n(CC)/c1=C\c1sc2ccccc2[n+]1CC.[I-] | 4.60 | 5.89 | 20 | 
CCN1/C(=C/C=c2\s/c(=C\c3sc4ccccc4[n+]3CC)n(C)c2=O)Oc2ccccc21.[I-] | 5.77 | 7.52 | 57 | 
CCN1/C(=C/C=c2/c(=O)n(CC)/c(=C/c3sc4c5ccccc5ccc4[n+]3CC)n2CC)Sc2ccc3ccccc3c21.[I-] | 6.10 | 7.00 | 8 | 
CCn1c(=O)c(=C2CCCCC2)s/c1=C\c1sc2ccccc2[n+]1CC.Cc1ccc(S(=O)(=O)[O-])cc1 | 4.79 | 5.74 | 9 | 
CCn1c(=O)/c(=C2\Sc3ccccc3N2C)s/c1=C\c1sc2ccccc2[n+]1CC.[I-] | 4.76 | 7.30 | 346 | pIC50 (Bladder carcinoma cell; bladder carcinoma cell): 7.15; pIC50 (LOX IMVI [2]): 7.70; pIC50 (MCF7; mcf7): 7.05; T/C (Mus musculus [10]): 180%; T/C (Mus musculus [11]): 168%; pIC50 (MIA PaCa-2; mia paca-2): 7.30
